Reference: US20100247525A1 (priority 2006, published 2010)
Values joined by “and” are separate entries in the source; they are usually repeats but may differ in a detail not shown here. Equal values may be shown once.

Assays:
[1] = test system: NFkappaB translocation; settings: mouse, in vivo
[2] = molecular target: T1, human TNF-α (Homo sapiens, UniProt P01375); settings: in vivo
T1 construct: purchased Chemicon, Inc

[3] = test system: LeTx pre-sensitized mice; settings: mouse, in vivo

T1 sequence (P01375 77-233 limits assumed): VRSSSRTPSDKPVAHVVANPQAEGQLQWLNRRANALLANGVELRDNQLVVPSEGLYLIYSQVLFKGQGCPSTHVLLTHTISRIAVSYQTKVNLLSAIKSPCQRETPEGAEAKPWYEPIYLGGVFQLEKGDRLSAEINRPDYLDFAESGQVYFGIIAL

Compound: Cc1ccc(=O)n(-c2ccccc2)c1 [Pirfenidone]
- survival enhancement [1]: 40% and 20%

Compound: Etanercept
- prevention of lethality [2]: prevents lethality
- protection when the death initiator is human TNF-α [2]: protects

Compound: PAM3-CSK-4
- initiation of RDP [3]: initiates RDP
- initiation of RDP (death initiator) [3]: death initiators
